Reference: article PMC8386742, “Discovery of N-aryl sulphonamide-quinazoline derivatives as anti-gastric cancer agents in vitro and in vivo via activating the Hippo signalling pathway” (Journal of Enzyme Inhibition and Medicinal Chemistry, 2021)

What was measured:
[1] = tested on: SGC-7901 cells; test: Annexin V-FITC/PI cell apoptosis assay, SGC-7901 cells; assay type: cell-based; conditions: SGC-7901, high dose, 48 h
Description: Bcl-2 regulated by the Hippo/YAP plays an important role in cell apoptosis. Therefore, we next examined the effects of compound 9i on cell apoptosis. MGC-803 and SGC-7901 cells were treated with compound 9i for 48 h, as shown in Figures 5(A,B), the nuclei of gastric cancer are dense and fragmented, and cells became round, small, and was induced to die. To determine the influence of compound 9i on cell death, MGC-803 and SGC-7901 cells treated with compound 9i were stained with Annexin V-FITC/PI. As shown in Figure 5(C), the high dose compound 9i treatment group induced over 60% of cell apoptosis at 48 h. As shown in Figure 5(D), some other apoptosis-related proteins were also regulated by compound 9i in MGC-803 and SGC-7901 cells. Compound 9i caused dose-dependent decreases of anti-apoptosis proteins c-IAP and Mcl-1. […] Mitochondrial membrane potential depolarisation and translocation from the mitochondria to the cytoplasm of cytochrome c are two key steps involved in the intrinsic apoptosis pathway. As shown in Figures 5(F–H), compound 9i depolarised mitochondrial membrane potential and induced the translocation of cytochrome c.
Figure 5. Compound 9i induced apoptosis in MGC-803 and SGC-7901 cells. Density ratios relative to β-Actin were shown on the top of each Western blotting band. […] The cell line of each row appears only in tiny plot titles that cannot be read with certainty. […]

[2] = tested on: MGC-803 xenograft tumour; test: MGC-803 xenograft model; assay type: in vivo, nude mice
Description: When the tumour volume reached 100 mm^3, vehicle control, compound 9i, and 5-FU were administered by daily intraperitoneal injection for 21 consecutive days. During the treatment, tumour volume and body weight of nude mice were measured every 3 days from the beginning of treatment. […] Tumour weight was measured after the execution of animals, the inhibition rate of the compound 9i treated group was over 60% than the vehicle group (Figures 7(B,C)). Tunnel staining was used for cell apoptosis detection, as shown in Figure 7(D), compound 9i increased the level of cell apoptosis. […] Next, the levels of YAP, Bcl-2, c-Myc, Ki67, and cleaved PARP in tissues were detected using immunochemistry to validate the results. […] The data indicated compound 9i inhibited YAP to inhibit the tumour in vivo.
A human gastric cancer subcutaneous transplantation tumour model was established with MGC-803 cells. After the tumour volume reaches 100 mm3 the MGC-803 bearing mice were randomised into 3 groups and intraperitoneal injection with normal saline or drugs continuously for 21 days. Tumour volume was measured every 3 days (Length × Width2/2). Mice were executed after treatment. 500 μL blood samples was collected each mouse, samples were then centrifuged at 2000 g for 10 min for biochemistry analysis. Tumour and organs tissues were harvested for H&E staining or immunochemistry detection. The experiments in the study were performed comply with the protocols approved by the Institutional Animal Care and Use Committee, Zhengzhou University.

[3] = tested on: P38, ERK, AKT, mTOR and Wnt pathways; test: Activity on P38, ERK, AKT, mTOR and Wnt pathways in cells; assay type: cell-based; conditions: 20, 40 and 60 nM, 48 hours
Description: In this work, compound 9i was design and synthesized by SAR study of our reported tertiary amide derivatives compound 1 and compound 2. Therefore, we tested the influence of compound 9i on tubulin polymerization and AKT/mTOR and ERK […]
influence on tubulin polymerization and P38, ERK, AKT, mTOR and Wnt pathways . […]
pathway. Therefore, we here reported N-sulfonamide-quinazoline derivatives as novel anti-gastric cancer agents via activating the Hippo signaling pathway in vitro and in […]
Supporting Figure S1. A. Activity of compound 9i on tubulin polymerization . Tubulin polymerization extracellular, concentrations of Paclitaxel, Colchicine and 9i were 3 μmol/L; Activity of compound 9i on P38, ERK, AKT, mTOR and Wnt pathways, cells were incubated with […]
(1 picture or pasted object on this page, not shown here)

SMILES: COc1ccc(S(=O)(=O)N(Cc2nc(C)c3ccccc3n2)c2cc(OC)c(OC)c(OC)c2)cc1 [Compound 9i, 4-Methoxy-N-((4-methylquinazolin-2-yl)methyl)-N-(3,4,5-trimethoxyphenyl) benzene-sulfonamide]
- cell apoptosis [1]: over 60%
- tumour growth (tumour volume) ([2]; daily intraperitoneal injection for 21 days): inhibited tumour growth in vivo
- tumour weight inhibition rate ([2]; daily intraperitoneal injection for 21 days, versus vehicle group): over 60%
- expression of YAP, Bcl-2 and c-Myc in tumour tissues ([2]; tumour tissues after 21 days treatment): significantly down-regulated
- influence on P38, ERK, AKT, mTOR and Wnt pathways [3]: no strong influence
